# Source: PubChem BioAssay AID2060600 (Molecular Pharmacology Branch, DTP, NCI, 2025)
# Test system: 996289-038-R-J1-PDC complex spheroid viability
# Experiment: Anticancer human tumor 996289-038-R-J1-PDC patient-derived colon adenocarcinoma cell line growth inhibition [CLK]
# Settings: for IC50: curve of first compound; for viability, T/C: stronger effect = lower value
# Text: A high-throughput screen of multi-cell type tumor spheroids was designed to identify active combinations of […] and targeted small molecules. Complex spheroids include a stromal component modeled by human endothelial cells (HUVEC) and fibroblasts modeled by human mesenchymal stem cells (MSCs). The concentration ranges selected for each drug and investigational agent were based upon clinically achievable concentrations if the clinical Cmax of the agent was known.
# Compounds. The drugs and investigational agents: cirtuvivint (SM08502; NSC835563), CC-671 (NSC850746), vemurafenib (NSC761431), tapotoclax (NSC804041), sotorasib (NSC818433), adagrasib (NSC831453), MRTX-1133 (NSC836407), BAY2416964 (NSC825713), copanlisib (NSC816437), inavolisib (NSC800729), abemaciclib (NSC768073), osimertinib (NSC779217), entinostat (NSC756642), eltanexor (KPT-8602, NSC794443), venetoclax (NSC766270), ceralasertib (NSC777638), bortezomib (NSC756655), olaparib (NSC753686), talazoparib (NSC767125), alisertib (NSC759677), peposertib (NSC802822), gemcitabine (NSC613327), 5-fluorouracil (NSC19893), SN-38 (NSC673596), oxaliplatin (NSC266046), paclitaxel (NSC125973), and doxorubicin (NSC123127), were obtained from the National Cancer Institute (NCI) Developmental Therapeutics Program Chemical Repository. The FDA-approved anticancer drug set is available from the Developmental Therapeutics Program at https://dtp.cancer.gov/organization/dscb/obtaining/available plates.htm. […] The stock solutions were prepared in dimethyl sulfoxide (DMSO, Sigma-Aldrich, St. Louis, MO, cat. D2650), except for the platinum complexes which were prepared in saline (Quality Biological, Gaithersburg, MD, cat. 114-055-101), at 800-fold the tested concentration and stored at -70 degrees C prior to their use. All drugs and investigational agents were tested over a range starting from a high concentration at or near the clinical Cmax and decreasing in half-log increments. If the clinical Cmax for an agent had not been determined, the highest concentration tested was 10 microM.
# Cell Culture. All cells were maintained in an incubator at 37 degrees C and 5% CO2 with 95% humidity. The PDC lines were cultured according to standard operating procedures established by the NCI PDMR. Briefly, all PDCs were thawed and cultured in Matrigel-coated flasks prepared with a working solution of 1X Ham's F-12 nutrient mix, without supplementation (Invitrogen, Waltham, MA, cat. 11765054), 100 U/mL penicillin-streptomycin (Invitrogen, cat. 15140122), and 2.5% Matrigel (Corning Inc., Corning, NY, cat. 354248) for the first three passages. The 947758-054-R-J2-PDC line was cultured in 6B/Colon 1A media, which includes advanced DMEM/F-12 (Thermo Fisher Scientific, cat. 12634028), 10 mM HEPES (Thermo Fisher Scientific, cat. 15630080), 1X GlutaMAX supplement (Thermo Fisher Scientific, cat. 35050061), 0.1 mg/mL primocin (InvivoGen, cat. ant-pm-2), 10% defined fetal bovine serum, heat inactivated (HyClone Laboratories Inc., cat. SH30070.03HI), 1.25 mM N-Acetyl-L-cysteine (Sigma-Aldrich, cat. A9165), 10 mM nicotinamide (Sigma-Aldrich, cat. N0636), 1X B-27 supplement (Thermo Fisher Scientific, cat. 17504044), 1X N-2 supplement (Thermo Fisher Scientific, cat. 17502048), and 10 microM Y-27632 dihydrochloride (Tocris Bioscience, cat. 1254). The 876862-298-R-J1-PDC was cultured in 6E media, which includes all 6B/Colon 1A media components plus 50% L-WRN conditioned media (ATCC, cat. CRL-3276), 50 ng/mL recombinant human EGF recombinant protein (hEGF; Thermo Fisher Scientific, cat. PHG0311), 10 ng/mL recombinant human fibroblast growth factor 10 (hGFG-10; PeproTech, cat. 100-26), 1 ng/mL recombinant human fibroblast growth factor 2 (hFGF-2; PeproTech, cat. 100-18B), and 1 µM prostaglandin E2 (PGE2; Tocris, cat. 2296). The 227483-062-R1-J1-PDC line was cultured in Panc media, containing all 6E components except hFGF-2, with the addition of 500 nM SB-431542 (Selleckchem, cat. S1067) and 10 nM gastrin (Tocris, cat. 3006). […]
# [1] = second compound 0.0316 µM, first compound 0.0316 µM
# [2] = second compound 0.0316 µM, first compound 0.1 µM
# [3] = second compound 0.0316 µM, first compound 0.316 µM
# [4] = second compound 0.0316 µM, first compound 1 µM
# [5] = second compound 0.0316 µM, first compound 3.16 µM
# [6] = second compound 0.0316 µM, first compound 10 µM
# [7] = second compound 0.1 µM, first compound 0.0316 µM
# [8] = second compound 0.1 µM, first compound 0.1 µM
# [9] = second compound 0.1 µM, first compound 0.316 µM
# [10] = second compound 0.1 µM, first compound 1 µM
# [11] = second compound 0.1 µM, first compound 3.16 µM
# [12] = second compound 0.1 µM, first compound 10 µM
# [13] = second compound 0.316 µM, first compound 0.0316 µM
# [14] = second compound 0.316 µM, first compound 0.1 µM
# [15] = second compound 0.316 µM, first compound 0.316 µM
# [16] = second compound 0.316 µM, first compound 1 µM
# [17] = second compound 0.316 µM, first compound 3.16 µM
# [18] = second compound 0.316 µM, first compound 10 µM
# [19] = second compound 1 µM, first compound 0.0316 µM
# [20] = second compound 1 µM, first compound 0.1 µM
# [21] = second compound 1 µM, first compound 0.316 µM
# [22] = second compound 1 µM, first compound 1 µM
# [23] = second compound 1 µM, first compound 3.16 µM
# [24] = second compound 1 µM, first compound 10 µM
# [25] = second compound 3.16 µM, first compound 0.0316 µM
# [26] = second compound 3.16 µM, first compound 0.1 µM
# [27] = second compound 3.16 µM, first compound 0.316 µM
# [28] = second compound 3.16 µM, first compound 1 µM
# [29] = second compound 3.16 µM, first compound 3.16 µM
# [30] = second compound 3.16 µM, first compound 10 µM
# [31] = second compound 10 µM, first compound 0.0316 µM
# [32] = second compound 10 µM, first compound 0.1 µM
# [33] = second compound 10 µM, first compound 0.316 µM
# [34] = second compound 10 µM, first compound 1 µM
# [35] = second compound 10 µM, first compound 3.16 µM
# [36] = second compound 10 µM, first compound 10 µM
# 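Further: spheroids exposed to the agents for 7 days before readout.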
structure (smiles),measurement,setting,value
CCCS(=O)(=O)Nc1ccc(F)c(C(=O)c2c[nH]c3ncc(-c4ccc(Cl)cc4)cc23)c1F + CN1CCN(c2cc(C(=O)Nc3cc4cc(-c5cnn(C)c5)ccc4cn3)ccn2)CC1,IC50,second compound 0.0316 µM,> 10000 nM
same,IC50,second compound 0.1 µM,> 10000 nM
same,IC50,second compound 0.316 µM,6170 nM
same,IC50,second compound 1 µM,< 31.6 nM
same,IC50,second compound 3.16 µM,< 31.6 nM
same,IC50,second compound 10 µM,< 31.6 nM
same,"viability, T/C",[1],92.3%
same,"viability, T/C",[2],87.7%
same,"viability, T/C",[3],95%
same,"viability, T/C",[4],98%
same,"viability, T/C",[5],98.6%
same,"viability, T/C",[6],68.1%
same,"viability, T/C",[7],94.2%
same,"viability, T/C",[8],82%
same,"viability, T/C",[9],90.1%
same,"viability, T/C",[10],92%
same,"viability, T/C",[11],81.3%
same,"viability, T/C",[12],57.3%
same,"viability, T/C",[13],67.4%
same,"viability, T/C",[14],70.3%
same,"viability, T/C",[15],70.9%
same,"viability, T/C",[16],76.6%
same,"viability, T/C",[17],65.7%
same,"viability, T/C",[18],37.9%
same,"viability, T/C",[19],5.57%
same,"viability, T/C",[20],6.02%
same,"viability, T/C",[21],6.22%
same,"viability, T/C",[22],7.67%
same,"viability, T/C",[23],5.81%
same,"viability, T/C",[24],5.48%
same,"viability, T/C",[25],1.49%
same,"viability, T/C",[26],1.01%
same,"viability, T/C",[27],1.22%
same,"viability, T/C",[28],1.3%
same,"viability, T/C",[29],2.36%
same,"viability, T/C",[30],1.6%
same,"viability, T/C",[31],1.91%
same,"viability, T/C",[32],0.63%
same,"viability, T/C",[33],1.71%
same,"viability, T/C",[34],0.77%
same,"viability, T/C",[35],1.81%
same,"viability, T/C",[36],0.48%
COC1C=CCC(C)C(C)S(=O)(=O)NC(=O)c2ccc3c(c2)N(CC2CCC21)CC1(CCCc2cc(Cl)ccc21)CO3 (centres undefined) + CN1CCN(c2cc(C(=O)Nc3cc4cc(-c5cnn(C)c5)ccc4cn3)ccn2)CC1,IC50,second compound 0.0316 µM,4530 nM
same,IC50,second compound 0.1 µM,2780 nM
same,IC50,second compound 0.316 µM,1470 nM
same,IC50,second compound 1 µM,< 31.6 nM
same,IC50,second compound 3.16 µM,< 31.6 nM
same,IC50,second compound 10 µM,< 31.6 nM
same,"viability, T/C",[1],98.8%
same,"viability, T/C",[2],106%
same,"viability, T/C",[3],96.2%
same,"viability, T/C",[4],79.5%
same,"viability, T/C",[5],60.4%
same,"viability, T/C",[6],30.1%
same,"viability, T/C",[7],93.3%
same,"viability, T/C",[8],86.1%
same,"viability, T/C",[9],78.8%
same,"viability, T/C",[10],78%
same,"viability, T/C",[11],45.6%
same,"viability, T/C",[12],27.7%
same,"viability, T/C",[13],60.6%
same,"viability, T/C",[14],74.7%
same,"viability, T/C",[15],63.6%
same,"viability, T/C",[16],53.9%
same,"viability, T/C",[17],39.6%
same,"viability, T/C",[18],21%
same,"viability, T/C",[19],7.76%
same,"viability, T/C",[20],8.39%
same,"viability, T/C",[21],6.69%
same,"viability, T/C",[22],4.97%
same,"viability, T/C",[23],4.86%
same,"viability, T/C",[24],2.21%
same,"viability, T/C",[25],1.75%
same,"viability, T/C",[26],0.92%
same,"viability, T/C",[27],1.25%
same,"viability, T/C",[28],1.45%
same,"viability, T/C",[29],1.53%
same,"viability, T/C",[30],0.93%
same,"viability, T/C",[31],1.98%
same,"viability, T/C",[32],1.21%
same,"viability, T/C",[33],0.68%
same,"viability, T/C",[34],0.74%
same,"viability, T/C",[35],0.47%
same,"viability, T/C",[36],1.7%
